Two molecules from patent US7329670B1, “Inhibition of RAF kinase using aryl and heteroaryl substituted heterocyclic ureas” (Bayer Pharmaceuticals Corporation, priority 1997, dated 2008) can be followed below.

The structures appear in SMILES notation.

As for `CC(C)(C)c1cc(NC(=O)Nc2cccc(Cl)c2Cl)c(-c2ccccc2)s1` [Entry 41, N-(2-Phenyl-5-tert-butyl-3-thienyl)-N′-(2,3-dichlorophenyl)urea], the melting point was 171 to 173 °C.
The same measure for `CC(C)(C)c1cc(NC(=O)Nc2cccc(Cl)c2Cl)c(-c2ccncc2)o1` [Entry 40, N-(2-(4-Pyridinyl)-5-tert-butyl-3-furyl)-N′-(2,3-dichlorophenyl)urea]: 195 to 198 °C.

What is called melting point is the temperature of the solid-liquid transition.
